# Test results as given in patent US20230391752A1, “PYRROLIDINE-3-CARBOXAMIDE DERIVATIVES AND RELATED USES” (Chulalongkorn University, priority 2020, published 2023).
# Tested on: HBV
# Assay: In vitro anti-HBV activity in HepG2.2.15 cell line (intracellular HBV DNA by qPCR at 1 μM)
# Type: cell-based
# Conditions: Hepatitis B virus, 144 h; HepG2.2.15 cells, 1 μM compound, 6 days, intracellular HBV DNA as percentage compared to vehicle control (0.5% DMSO)
# Protocol: The stable transfected HBV cell line, called HepG2.2.15 cells was a valuable model with high reproducibility and commonly used for drug screening. To identify the anti-HBV activity, HepG2.2.15 cells were seeded at 5×10^5 cells/well with high glucose Dulbecco's modified Eagle medium (DMEM) containing 10% heat inactivated fetal bovine serum (FBS), 300 mg/L G418, non-essential amino acids (NEAA) 100 units/ml Antibiotic-Antimycotic, and allowed to stand for an overnight in an incubator set at 37° C. and 5% C02. HepG2.2.15 cells in each well were treated with the medium containing a compound (1 μM with 0.5% dimethyl sulfoxide (DMSO final concentration) for three days in the incubator. After that the medium was removed and fresh medium containing the compound was added to the cells for another 3 days. After 6 days of treatment, intracellular HBV DNA was extracted and determined by using quantitative real-time PCR (qPCR) technique with specific primers. Intrahepatic HBV DNA viral load was reported as percentage compared to vehicle control (0.5% DMSO) as shown in Table A.
# “B” means % ranging between 80 and 90; “C” means % ranging between 70 and 80; “D” means % ranging between 60 and 70; “E” means % ranging between 45 and 60, “F” means %<45.
row,Structure (SMILES),activity at 1 µM
1,"N#Cc1c(C(=O)N2CC[C@H](C(=O)Nc3cc(F)c(F)c(F)c3)C2)[nH]c2ncccc12 [Example 63, (S)-1-(3-cyano-1H-pyrrolo[2,3-b]pyridine-2-carbonyl)-N-(3,4,5-trifluorophenyl)pyrrolidine-3-carboxamide]",70 to 80%
2,"O=C(Nc1cc(F)c(F)c(F)c1)[C@H]1CCN(C(=O)c2cc3cc(F)c(F)cc3[nH]2)C1 [Example 49, (S)-1-(5,6-difluoro-1H-indole-2-carbonyl)-N-(3,4,5-trifluorophenyl)pyrrolidine-3-carboxamide]",> 90%
3,"Cc1cc(NC(=O)[C@@H]2CN(C(=O)c3[nH]c4ccccc4c3Cl)C[C@H]2C)ccc1F [Example 167, (3S,4S)-1-(3-chloro-1H-indole-2-carbonyl)-N-(4-fluoro-3-methylphenyl)-4-methylpyrrolidine-3-carboxamide]",45 to 60%
4,"O=C(Nc1cc(F)c(F)c(F)c1)[C@H]1CCN(C(=O)c2ccc(-c3ccncc3)[nH]2)C1 [Example 77, (S)-1-(5-(pyridin-4-yl)-1H-pyrrole-2-carbonyl)-N-(3,4,5-trifluorophenyl)pyrrolidine-3-carboxamide]",< 45%
5,"Cc1ncnc(C)c1-c1ccc2c(Cl)c(C(=O)N3CC[C@H](C(=O)NCc4cnc(Cl)s4)C3)[nH]c2c1 [Example 136, (S)-1-(3-chloro-6-(4,6-dimethylpyrimidin-5-yl)-1H-indole-2-carbonyl)-N-((2-chlorothiazol-5-yl)methyl)pyrrolidine-3-carboxamide]",> 90%
6,"Cc1ncnc(C)c1-c1ccc(C(=O)N2CC[C@H](C(=O)Nc3ccc(F)c(C#N)c3)C2)[nH]1 [Example 94, (S)—N-(3-cyano-4-fluorophenyl)-1-(5-(4,6-dimethylpyrimidin-5-yl)-1H-pyrrole-2-carbonyl)pyrrolidine-3-carboxamide]",60 to 70%
7,"Cc1cc(NC(=O)[C@H]2CCN(C(=O)c3ccc(-c4c(C)nn(CCO)c4C)[nH]3)[C@H]2C)ccc1F [Example 126, (2S,3S)—N-(4-fluoro-3-methylphenyl)-1-(5-(1-(2-hydroxyethyl)-3,5-dimethyl-1H-pyrazol-4-yl)-1H-pyrrole-2-carbonyl)-2-methylpyrrolidine-3-carboxamide]",< 45%
8,"O=C(Nc1cc(F)c(F)c(F)c1)[C@H]1CCN(C(=O)c2ccc(-c3cn[nH]c(=O)c3)[nH]2)C1 [Example 121, (S)-1-(5-(6-oxo-1,6-dihydropyridazin-4-yl)-1H-pyrrole-2-carbonyl)-N-(3,4,5-trifluorophenyl)pyrrolidine-3-carboxamide]",80 to 90%
9,"O=C(Nc1cc(F)c(F)c(F)c1)[C@H]1CCN(C(=O)c2ccc3c(CNCCO)c[nH]c3c2)C1 [Example 37, (S)-1-(3-(((2-hydroxyethyl)amino)methyl)-1H-indole-6-carbonyl)-N-(3,4,5-trifluorophenyl) pyrrolidine-3-carboxamide]",> 90%
10,"N#Cc1ccc(C(=O)N2CC[C@H](C(=O)Nc3cc(F)c(F)c(F)c3)C2)[nH]1 [Example 50, (S)-1-(5-cyano-1H-pyrrole-2-carbonyl)-N-(3,4,5-trifluorophenyl)pyrrolidine-3-carboxamide]",70 to 80%
11,"Cc1n[nH]c(C)c1-c1ccc2cc(C(=O)N3CC[C@H](C(=O)Nc4cc(F)c(F)c(F)c4)C3)[nH]c2c1 [Example 134, (S)-1-(6-(3,5-dimethyl-1H-pyrazol-4-yl)-1H-indole-2-carbonyl)-N-(3,4,5-trifluorophenyl)pyrrolidine-3-carboxamide]",< 45%
12,"Cc1ncccc1C(=O)c1ccc(C(=O)N2CC[C@H](C(=O)Nc3cc(F)c(F)c(F)c3)C2)[nH]1 [Example 144, (S)-1-(5-(2-methylnicotinoyl)-1H-pyrrole-2-carbonyl)-N-(3,4,5-trifluorophenyl)pyrrolidine-3-carboxamide]",> 90%
13,"Cc1ccc(C(=O)N2CC[C@H](C(=O)Nc3cc(F)c(F)c(F)c3)C2)s1 [Example 44, (S)-1-(5-methylthiophene-2-carbonyl)-N-(3,4,5-trifluorophenyl)pyrrolidine-3-carboxamide]",70 to 80%
14,"C[C@H]1[C@@H](C(=O)Nc2cc(F)c(F)c(F)c2)CCN1C(=O)c1[nH]c2ccccc2c1CO [Example 72, (2S,3S)-1-(3-(hydroxymethyl)-1H-indole-2-carbonyl)-2-methyl-N-(3,4,5-trifluorophenyl)pyrrolidine-3-carboxamide]",60 to 70%
15,"O=C(Nc1cc(F)c(F)c(F)c1)[C@H]1CCN(C(=O)c2cc3ncccc3[nH]2)C1 [Example 14, (S)-1-(1H-pyrrolo[3,2-b]pyridine-2-carbonyl)-N-(3,4,5-trifluorophenyl)pyrrolidine-3-carboxamide]",70 to 80%
16,"O=C(Nc1cc(F)c(F)c(F)c1)[C@H]1CCN(C(=O)c2ccc(-c3cccnn3)[nH]2)C1 [Example 96, (S)-1-(5-(pyridazin-3-yl)-1H-pyrrole-2-carbonyl)-N-(3,4,5-trifluorophenyl)pyrrolidine-3-carboxamide]",45 to 60%
17,"Cc1c(-c2ccc(C(=O)N3CC[C@H](C(=O)Nc4cc(F)c(F)c(F)c4)C3)[nH]2)c2cccnc2n1C [Example 153, (S)-1-(5-(1,2-dimethyl-1H-pyrrolo[2,3-b]pyridin-3-yl)-1H-pyrrole-2-carbonyl)-N-(3,4,5-trifluorophenyl)pyrrolidine-3-carboxamide]",< 45%
18,"N#Cc1cc(NC(=O)[C@H]2CCN(C(=O)c3ccc(-c4ccc(F)cc4)[nH]3)C2)ccc1F [Example 76, (S)—N-(3-cyano-4-fluorophenyl)-1-(5-(4-fluorophenyl)-1H-pyrrole-2-carbonyl)pyrrolidine-3-carboxamide]",45 to 60%
19,"Cc1cc(NC(=O)[C@H]2CCN(C(=O)c3nc4ccccc4[nH]3)C2)ccc1F [Example 68, (S)-1-(1H-benzo[d]imidazole-2-carbonyl)-N-(4-fluoro-3-methylphenyl)pyrrolidine-3-carboxamide]",< 45%
20,"Cc1cc(NC(=O)[C@@H]2CN(C(=O)c3ccc(-c4c(C)n[nH]c4C)[nH]3)C[C@H]2C)ccc1F [Example 169, (3S,4S)-1-(5-(3,5-dimethyl-1H-pyrazol-4-yl)-1H-pyrrole-2-carbonyl)-N-(4-fluoro-3-methylphenyl)-4-methylpyrrolidine-3-carboxamide]",< 45%
21,"CC(O)c1c[nH]c(C(=O)N2CC[C@H](C(=O)Nc3cc(F)c(F)c(F)c3)C2)c1 (stereo partly drawn) [Example 39, (3S)-1-(4-(1-hydroxyethyl)-1H-pyrrole-2-carbonyl)-N-(3,4,5-trifluorophenyl)pyrrolidine-3-carboxamide]",70 to 80%
22,"Cc1cc(Cl)c(C(=O)N2CC[C@H](C(=O)Nc3cc(F)c(F)c(F)c3)C2)s1 [Example 5, (S)-1-(3-chloro-5-methylthiophene-2-carbonyl)-N-(3,4,5-trifluorophenyl)pyrolidine-3-carboxamide]",80 to 90%
23,"N#Cc1ncccc1-c1ccc(C(=O)N2CC[C@H](C(=O)Nc3ccc(F)c(Cl)c3)C2)[nH]1 [Example 148, (S)—N-(3-chloro-4-fluorophenyl)-1-(5-(2-cyanopyridin-3-yl)-1H-pyrrole-2-carbonyl)pyrrolidine-3-carboxamide]",45 to 60%
24,"O=C(Nc1cc(F)c(F)c(F)c1)[C@H]1CCN(C(=O)c2ccc3cc[nH]c3c2)C1 [Example 35, (S)-1-(1H-indole-6-carbonyl)-N-(3,4,5-trifluorophenyl)pyrrolidine-3-carboxamide]",70 to 80%
25,"Cc1nccnc1-c1ccc(C(=O)N2CC[C@H](C(=O)Nc3cc(F)c(F)c(F)c3)[C@@H]2C)[nH]1 [Example 93, (2S,3S)-2-methyl-1-(5-(3-methylpyrazin-2-yl)-1H-pyrrole-2-carbonyl)-N-(3,4,5-trifluorophenyl) pyrrolidine-3-carboxamide]",< 45%
26,"O=C(Nc1cc(F)c(F)c(F)c1)[C@H]1CCN(C(=O)c2ccc(-c3cnccn3)[nH]2)C1 [Example 131, (S)-1-(5-(pyrazin-2-yl)-1H-pyrrole-2-carbonyl)-N-(3,4,5-trifluorophenyl)pyrrolidine-3-carboxamide]",45 to 60%
27,"Cn1ccnc1-c1ccc(C(=O)N2CC[C@H](C(=O)Nc3cc(F)c(F)c(F)c3)C2)[nH]1 [Example 91, (S)-1-(5-(1-methyl-1H-imidazol-2-yl)-1H-pyrrole-2-carbonyl)-N-(3,4,5-trifluorophenyl)pyrrolidine-3-carboxamide]",< 45%
28,"O=C(Nc1cc(F)c(F)c(F)c1)[C@H]1CCN(C(=O)c2ccc(C(F)F)[nH]2)C1 [Example 11, (S)-1-(5-(difluoromethyl)-1H-pyrrole-2-carbonyl)-N-(3,4,5-trifluorophenyl)pyrrolidine-3-carboxamide]",70 to 80%
29,"O=C(Nc1cc(F)c(F)c(F)c1)[C@H]1CCN(C(=O)c2cc3sccc3[nH]2)C1 [Example 7, (S)-1-(4H-thieno[3,2-b]pyrrole-5-carbonyl)-N-(3,4,5-trifluoro-phenyl)pyrrolidine-3-carboxamide]",60 to 70%
30,"Cc1cc[nH]c(=O)c1-c1ccc(C(=O)N2CC[C@H](C(=O)Nc3cc(F)c(F)c(F)c3)C2)[nH]1 [Example 118, (S)-1-(5-(4-methyl-2-oxo-1,2-dihydropyridin-3-yl)-1H-pyrrole-2-carbonyl)-N-(3,4,5-trifluorophenyl)pyrrolidine-3-carboxamide]",60 to 70%
